Broadly, the inhibition is the change of the read-out against control, counted positive when it falls. High values mean strong suppression, low ones little suppression.

SMILES strings stand for the structures.

Here are results for one molecule from ChEMBL document CHEMBL5393450, “Compounds inhibiting tdg activity” (2022).

This test addresses G/T mismatch-specific thymine DNA glycosylase (Homo sapiens) (UniProt Q13569). The test is described as follows: Inhibition of TDG in human HEK293T at 10 uM by Renilla luciferase based reporter assay relative to control. The class given is cell-based. (A reporter such as luciferase makes a cellular process visible.)

Sequence of G/T mismatch-specific thymine DNA glycosylase (Homo sapiens) (Q13569 whole entry): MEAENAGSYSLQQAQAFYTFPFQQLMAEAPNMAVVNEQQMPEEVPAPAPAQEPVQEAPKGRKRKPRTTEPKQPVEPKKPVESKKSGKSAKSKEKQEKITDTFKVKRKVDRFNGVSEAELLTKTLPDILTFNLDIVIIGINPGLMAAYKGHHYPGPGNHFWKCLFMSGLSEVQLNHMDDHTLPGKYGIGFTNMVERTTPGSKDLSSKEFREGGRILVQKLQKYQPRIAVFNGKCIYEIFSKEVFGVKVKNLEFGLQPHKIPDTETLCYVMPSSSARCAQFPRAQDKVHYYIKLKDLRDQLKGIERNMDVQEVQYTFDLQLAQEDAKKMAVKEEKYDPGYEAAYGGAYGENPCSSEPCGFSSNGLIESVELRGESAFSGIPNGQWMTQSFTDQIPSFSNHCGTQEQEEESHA

As for `Cc1ccc(C2CCN(CCC(=O)c3ccc4c(c3)OCCO4)C2)cc1` (stereo unspecified), the inhibition was under 25%.
